Reference: ChEMBL document CHEMBL1201862, “PubChem BioAssay data set” (2004)
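Assay format: 96-well plates, 48-hour exposure. The concentration for 50% growth inhibition is given as GI50.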 Active and inactive are the calls of the source. Rule as the data show it: active = GI50 up to about 1.1 µM and inactive = higher.

What was measured:
Experiment in all cases: growth of human tumour cells (NCI), 48 h
HOP-92 = tested on: HOP-92
SNB-75 = tested on: SNB-75
NCI-H23 = tested on: NCI-H23
KM12 = tested on: KM12
SR = tested on: SR
U-251 = tested on: U-251
SK-MEL-5 = tested on: SK-MEL-5
PC-3 = tested on: PC-3
TK-10 = tested on: TK-10
UACC-62 = tested on: UACC-62
HCT-116 = tested on: HCT-116
SK-OV-3 = tested on: SK-OV-3
SW-620 = tested on: SW-620
LOX IMVI = tested on: LOX IMVI
OVCAR-8 = tested on: OVCAR-8
SN12C = tested on: SN12C
Malme-3M = tested on: Malme-3M
HT-29 = tested on: HT-29
NCI-H522 = tested on: NCI-H522
DU-145 = tested on: DU-145
SF-295 = tested on: SF-295
COLO 205 = tested on: COLO 205
BT-549 = tested on: BT-549
SNB-19 = tested on: SNB-19
M14 = tested on: M14
SF-539 = tested on: SF-539
UACC-257 = tested on: UACC-257
SK-MEL-2 = tested on: SK-MEL-2
SK-MEL-28 = tested on: SK-MEL-28
MDA-N = tested on: MDA-N
CCRF-CEM = tested on: CCRF-CEM
EKVX = tested on: EKVX
UO-31 = tested on: UO-31
MOLT-4 = tested on: MOLT-4
786-0 = tested on: 786-0
MCF7 = tested on: MCF7
NCI-H460 = tested on: NCI-H460
NCI/ADR-RES = tested on: NCI/ADR-RES
CAKI-1 = tested on: CAKI-1
Hs-578T = tested on: Hs-578T
SF-268 = tested on: SF-268
ACHN = tested on: ACHN
NCI-H226 = tested on: NCI-H226
HCC 2998 = tested on: HCC 2998
HOP-62 = tested on: HOP-62
OVCAR-3 = tested on: OVCAR-3
MDA-MB-435 = tested on: MDA-MB-435
OVCAR-5 = tested on: OVCAR-5
HCT-15 = tested on: HCT-15
K562 = tested on: K562
MDA-MB-231 = tested on: MDA-MB-231
T47D = tested on: T47D
OVCAR-4 = tested on: OVCAR-4
RXF 393 = tested on: RXF 393
A549 = tested on: A549
HL-60 = tested on: HL-60
RPMI-8226 = tested on: RPMI-8226
IGROV-1 = tested on: IGROV-1
A498 = tested on: A498

For `CN(C)CCCc1cccc2[nH]c3c(c12)CN(C)CC3`, the GI50 (HOP-92) was > 100 µM (inactive), the GI50 (SNB-75) was 78 µM (inactive) and the GI50 (NCI-H23) was > 100 µM (inactive). For the same compound, the GI50 (KM12) was > 100 µM (inactive), the GI50 (SR) was 27.4 µM (inactive) and the GI50 (U-251) was > 100 µM (inactive). The GI50 (SK-MEL-5) was > 100 µM (inactive), the GI50 (PC-3) was 67.1 µM (inactive) and the GI50 (TK-10) was > 100 µM (inactive). For the same compound, the GI50 (UACC-62) was > 100 µM (inactive), the GI50 (HCT-116) was > 100 µM (inactive) and the GI50 (SK-OV-3) was > 100 µM (inactive). The GI50 (SW-620) was > 100 µM (inactive), the GI50 (LOX IMVI) was 30.1 µM (inactive) and the GI50 (OVCAR-8) was > 100 µM (inactive). For the same compound, the GI50 (SN12C) was > 100 µM (inactive), the GI50 (Malme-3M) was 95.9 µM (inactive) and the GI50 (HT-29) was 40.1 µM (inactive). For the same compound, the GI50 (NCI-H522) was > 100 µM (inactive), the GI50 (DU-145) was > 100 µM (inactive) and the GI50 (SF-295) was > 100 µM (inactive). For the same compound, the GI50 (COLO 205) was 63.4 µM (inactive), the GI50 (BT-549) was 81.7 µM (inactive) and the GI50 (SNB-19) was > 100 µM (inactive). The GI50 (M14) was 17.3 µM (inactive), the GI50 (SF-539) was 28.8 µM (inactive) and the GI50 (UACC-257) was 80 µM (inactive). The GI50 (SK-MEL-2) was > 100 µM (inactive), the GI50 (SK-MEL-28) was > 100 µM (inactive) and the GI50 (MDA-N) was > 100 µM (inactive). For the same compound, the GI50 (CCRF-CEM) was 63.2 µM (inactive), the GI50 (EKVX) was > 100 µM (inactive) and the GI50 (UO-31) was > 100 µM (inactive). For the same compound, the GI50 (MOLT-4) was 75 µM (inactive), the GI50 (786-0) was 92.3 µM (inactive) and the GI50 (MCF7) was > 100 µM (inactive). For the same compound, the GI50 (NCI-H460) was > 100 µM (inactive), the GI50 (NCI/ADR-RES) was > 100 µM (inactive) and the GI50 (CAKI-1) was > 100 µM (inactive). For the same compound, the GI50 (Hs-578T) was > 100 µM (inactive), the GI50 (SF-268) was > 100 µM (inactive) and the GI50 (ACHN) was > 100 µM (inactive). For the same compound, the GI50 (NCI-H226) was > 100 µM (inactive), the GI50 (HCC 2998) was > 100 µM (inactive) and the GI50 (HOP-62) was 56.5 µM (inactive). The GI50 (OVCAR-3) was > 100 µM (inactive), the GI50 (MDA-MB-435) was > 100 µM (inactive) and the GI50 (OVCAR-5) was > 100 µM (inactive). The GI50 (HCT-15) was 80 µM, the GI50 (K562) was 76.7 µM (inactive) and the GI50 (MDA-MB-231) was 17.8 µM (inactive). The GI50 (T47D) was > 100 µM (inactive), the GI50 (OVCAR-4) was > 100 µM (inactive) and the GI50 (RXF 393) was 19.7 µM (inactive). For the same compound, the GI50 (A549) was > 100 µM (inactive), the GI50 (HL-60) was 56.9 µM (inactive) and the GI50 (RPMI-8226) was > 100 µM (inactive). For the same compound, the GI50 (IGROV-1) was 73.1 µM (inactive).
`CC(C)[C@H]1NC(=O)[C@H]2N=C(O[C@@H]2C)[C@@H]2CCCN2C(=O)[C@H](Cc2ccccc2)NC(=O)[C@@H]2CSC(=N2)[C@@H](Cc2ccccc2)NC(=O)[C@@H]2CSC1=N2` was tested, and the GI50 (NCI-H23) was > 100 µM (inactive), the GI50 (KM12) was 88.1 µM (inactive) and the GI50 (SR) was > 100 µM (inactive). The GI50 (U-251) was > 100 µM (inactive), the GI50 (SK-MEL-5) was 95.9 µM (inactive) and the GI50 (A498) was > 100 µM (inactive). For the same compound, the GI50 (PC-3) was 37.5 µM (inactive), the GI50 (TK-10) was > 100 µM (inactive) and the GI50 (UACC-62) was 50 µM (inactive). The GI50 (HCT-116) was 90.8 µM (inactive), the GI50 (SK-OV-3) was > 100 µM (inactive) and the GI50 (SW-620) was 86.5 µM (inactive). For the same compound, the GI50 (LOX IMVI) was 75.3 µM (inactive), the GI50 (OVCAR-8) was > 100 µM (inactive) and the GI50 (SN12C) was > 100 µM (inactive). For the same compound, the GI50 (Malme-3M) was > 100 µM (inactive), the GI50 (HT-29) was 84.5 µM (inactive) and the GI50 (NCI-H522) was 58.2 µM (inactive). The GI50 (DU-145) was > 100 µM (inactive), the GI50 (SF-295) was > 100 µM (inactive) and the GI50 (COLO 205) was > 100 µM (inactive). The GI50 (BT-549) was > 100 µM (inactive), the GI50 (SNB-19) was > 100 µM (inactive) and the GI50 (M14) was > 100 µM (inactive). For the same compound, the GI50 (SF-539) was > 100 µM (inactive), the GI50 (UACC-257) was > 100 µM (inactive) and the GI50 (SK-MEL-2) was 85.9 µM (inactive). The GI50 (SK-MEL-28) was 75.3 µM (inactive), the GI50 (MDA-N) was > 100 µM (inactive) and the GI50 (CCRF-CEM) was > 100 µM (inactive). The GI50 (EKVX) was > 100 µM (inactive), the GI50 (UO-31) was 59.8 µM (inactive) and the GI50 (MOLT-4) was 75.7 µM (inactive). The GI50 (786-0) was > 100 µM (inactive), the GI50 (MCF7) was > 100 µM (inactive) and the GI50 (NCI/ADR-RES) was 86.5 µM (inactive). The GI50 (CAKI-1) was > 100 µM (inactive), the GI50 (Hs-578T) was > 100 µM (inactive) and the GI50 (SF-268) was > 100 µM (inactive). The GI50 (ACHN) was > 100 µM (inactive), the GI50 (NCI-H226) was > 100 µM (inactive) and the GI50 (HCC 2998) was 21.7 µM (inactive). The GI50 (HOP-62) was > 100 µM (inactive), the GI50 (OVCAR-3) was 38.5 µM (inactive) and the GI50 (MDA-MB-435) was 52.8 µM (inactive). For the same compound, the GI50 (OVCAR-5) was > 100 µM (inactive), the GI50 (HCT-15) was > 100 µM and the GI50 (K562) was 92.9 µM (inactive). For the same compound, the GI50 (MDA-MB-231) was > 100 µM (inactive), the GI50 (T47D) was > 100 µM (inactive) and the GI50 (OVCAR-4) was 38.2 µM (inactive). The GI50 (RXF 393) was 61.4 µM (inactive), the GI50 (A549) was 84.5 µM (inactive) and the GI50 (HL-60) was > 100 µM (inactive). The GI50 (RPMI-8226) was 20 µM (inactive) and the GI50 (IGROV-1) was 41.1 µM (inactive).
`Cc1nc2c(o1)C(=O)c1ccccc1/C2=N/C1CCCCC1N` (stereo not given) was tested, and the GI50 (HOP-92) was 0.483 µM (active), the GI50 (SNB-75) was 0.206 µM (active) and the GI50 (NCI-H23) was 0.0975 µM (active). The GI50 (KM12) was 1.67 µM (inactive), the GI50 (SR) was 0.22 µM (active) and the GI50 (U-251) was 0.312 µM (active). The GI50 (SK-MEL-5) was 0.11 µM (active), the GI50 (A498) was 1.73 µM (inactive) and the GI50 (PC-3) was 0.321 µM (active). The GI50 (TK-10) was 1.98 µM (inactive), the GI50 (UACC-62) was 0.169 µM (active) and the GI50 (HCT-116) was 0.259 µM (active). The GI50 (SW-620) was 0.418 µM (active), the GI50 (LOX IMVI) was 0.16 µM (active) and the GI50 (OVCAR-8) was 0.274 µM (active). For the same compound, the GI50 (SN12C) was 0.386 µM (active), the GI50 (Malme-3M) was 0.133 µM (active) and the GI50 (HT-29) was 2.28 µM (inactive). The GI50 (NCI-H522) was 1.06 µM (active), the GI50 (DU-145) was 1.48 µM (inactive) and the GI50 (COLO 205) was 1.66 µM (inactive). The GI50 (BT-549) was 0.41 µM (active), the GI50 (SNB-19) was 0.787 µM (active) and the GI50 (M14) was 0.425 µM (active). The GI50 (SF-539) was 0.32 µM (active), the GI50 (UACC-257) was 0.144 µM (active) and the GI50 (SK-MEL-2) was 0.867 µM (active). For the same compound, the GI50 (SK-MEL-28) was 0.166 µM (active), the GI50 (MDA-N) was 0.185 µM (active) and the GI50 (CCRF-CEM) was 0.247 µM (active). For the same compound, the GI50 (EKVX) was 1.11 µM (active), the GI50 (UO-31) was 1.64 µM (inactive) and the GI50 (MOLT-4) was 0.273 µM (active). The GI50 (786-0) was 1.77 µM (inactive), the GI50 (MCF7) was 0.265 µM (active) and the GI50 (NCI-H460) was 1.61 µM (inactive). The GI50 (NCI/ADR-RES) was 0.288 µM (active), the GI50 (CAKI-1) was 1.71 µM (inactive) and the GI50 (Hs-578T) was 0.644 µM (active). The GI50 (SF-268) was 1.09 µM (active), the GI50 (ACHN) was 0.649 µM (active) and the GI50 (NCI-H226) was 1.97 µM (inactive). For the same compound, the GI50 (HCC 2998) was 1.65 µM (inactive), the GI50 (HOP-62) was 0.982 µM (active) and the GI50 (OVCAR-3) was 0.249 µM (active). The GI50 (MDA-MB-435) was 0.162 µM (active), the GI50 (OVCAR-5) was 1.75 µM (inactive) and the GI50 (HCT-15) was 0.547 µM. The GI50 (K562) was 0.235 µM (active), the GI50 (MDA-MB-231) was 0.373 µM (active) and the GI50 (T47D) was 0.345 µM (active). For the same compound, the GI50 (OVCAR-4) was 0.308 µM (active), the GI50 (A549) was 1.46 µM (inactive) and the GI50 (HL-60) was 0.2 µM (active). The GI50 (RPMI-8226) was 0.565 µM (active) and the GI50 (IGROV-1) was 1.26 µM (inactive).
